Values quoted from earlier work as cited in patent US12251467B2, “Vaginal hydrogel for delivery of therapeutics” (priority 2018, dated 2025).
In brackets after ≈: the same amount, converted by molar mass.

solubility in water: 100 µg/mL (≈ 363 µM)
Compound: Cc1ncc([N+](=O)[O-])n1CCOC(=O)c1ccccc1 [metronidazole benzoate]
